Test results: patent publication US20250304623A1, “PEPTIDES FOR INTRACELLULAR DELIVERY” (UNIVERSIDADE DE SANTIAGO DE COMPOSTELA, priority 2022, published 2025)
Starred links: 1 amine or outer side, 2 acyl side, 3 side chain; linkers in the order of their positions; H or OH if unused. Residues, ends and D or L forms follow the SMILES beside them. Groups on a side chain read outwards from the residue. *: point of attachment. Glutaryl = O=C(CCCC(=O)[*:2])[*:1]; NHNH2 = NN*

How the values were obtained:
Type in all cases: cell-based
[1] = test system: A549 cells expressing EGFP; test: EGFP-targeting siRNA delivery (GFP silencing vs siMOCK), A549; conditions: for percentage of GFP-silencing relative to siMOCK: A549 cells
Protocol: (§1) To generate an EGFP expressing HeLa cell line, HeLa cells were transfected with EGFP pDNA (pEGFP-C1, Clontech) and stable transfectants were selected with 400 μg/mL of G-418 (Millipore). Green clones were selected by epifluorescence microscopy and tested for EGFP expression stability through several passages. […] All other EGFP-expressing cell lines were obtained in a similar way from parent non-EGFP-expressing cell lines.
Cells expressing EGFP were seeded in a 96 well plate the day before the experiment at a concentration of 50,000 cell/mL (100 μL/w) in DMEM+10% FBS+1% Gln-Abt. For robotic library screening, the delivery of an EGFP-targeting siRNA (EGFP: enhanced green fluorescent protein, Ambion® Silencer® GFP Positive Control siRNA (siGFP) (AM4626)) in six different cell lines expressing EGFP was performed. […] The mixture was shaken for 30 min at room temperature (rt) before the addition to the cells. The cell medium was aspirated, and cells were washed twice with PBS. Finally, 50 μL of the solution of siRNA/amphiphile complexes were added to the cells and incubated for 4 h. After transfection, the medium was replaced by 100 μL of fresh DMEM supplemented with 10% FBS. The fluorescence knockdown was quantified after 72 h in a plate reader, by comparison with cells transfected with a non-targeting siRNA control (siMOCK, Silencer™ Negative Control No. 1 siRNA (siMOCK) (AM4611)). EGFP knockdown was compared with Lipofectamine® RNAiMAX silencing efficiency (30-60% depending on cell line, defined with a numeric value in the below tables). All experiments were done in triplicate.
(§2) Tables 1-7: RLuc (pDNA) or EGFP (mRNA) expression levels were normalized to Lipofectamine reagents (value=1) and expressed as fold-times signal increase. In the case of siRNA, the siRNA treated cells fluorescence was compared with siMOCK control fluorescence, while Cas9-RNP mediated knockout was measured against the fluorescence of untreated cells. In both siRNA and Cas9-RNP, values are expressed as % fluorescence reduction. Amphiphile concentration was 5 μM in all cases. All experiments were performed in triplicate.
Tables 20-25 show the mean (triplicates) percentage of GFP-silencing, accounted by fluorescence intensity decrease relative to a non-targeting siRNA (siMOCK) control, measured after the transfection of siRNA by different amphiphiles at different concentrations in a variety of cell lines. Background values, accounted by untreated control cells, were subtracted for processing.

[2] = test system: A549 cells expressing EGFP; test: Cas9-RNP delivery against EGFP (gene editing, plate reader), A549; conditions: for percentage of gene editing, GFP fluorescence intensity decrease (% of reduction): A549 cells
Protocol: as §1
(§3) Cells expressing EGFP were seeded in a 96 well plate the day before the experiment at a concentration of 50,000 cell/mL (100 μL/w) in DMEM+10% FBS+1% Gln-Abt. For robotic library screening, the delivery of Cas9-RNP against EGFP (RNP designed to knock-out the gene encoding for the enhanced green fluorescent protein (EGFP)) was performed. For RNP assembly, 9.2 μL of crRNA and 9.2 μL of tracrRNA were mixed in 211.6 μL of Nuclease-Free Duplex Buffer (IDT), incubated for 5 min at 95° C. and slowly cooled at rt (see I. Lostalé-Seijo, et al. Peptide/Cas9 nanostructures for ribonucleoprotein cell membrane transport and gene edition, Chem. Sci., 2017). Cas9 protein was dissolved in DMEM at a final concentration of 4 μM and equal volumes of the RNA complex and Cas9 were mixed and incubated for 5 min at rt. 75 μL of the corresponding amphiphile concentrations were added to 5 μL of RNP at 2 μM. The mixture was shaken for 30 min at room temperature before the addition to the cells. The cell medium was aspirated, and cells were washed twice with PBS. Cells were covered with 30 μL of DMEM and 20 μL of the RNP/amphiphile complexes were added to the cells (final peptide concentrations=2.5, 5 and 10 μM; final Cas9-RNP concentration=50 nM) and incubated for 4 h. After the incubation, the medium was replaced by 100 μL of fresh DMEM supplemented with 10% FBS. The total EGFP fluorescence was quantified after 72 h in a plate reader (FIG. 2, Table 1 (right) and Table 6). All experiments were done in triplicate.
as §2
(§4) Tables 26-31 show the mean (triplicates) percentage of gene editing, accounted by GFP fluorescence intensity decrease (% of reduction), measured after the transfection of Cas9-RNP by different amphiphiles at different concentrations in a variety of cell lines. Background values, accounted by untreated control cells, were subtracted for processing.

[3] = test system: HCT116 cells expressing EGFP; test: Cas9-RNP delivery against EGFP (gene editing, plate reader), HCT116
Protocol: as §1
as §3, with “triplicate. […]” for “triplicate.”
as §4

Compound	percentage of GFP-silencing relative to siMOCK ([1]; Myristoleyl, 10 μM)	percentage of GFP-silencing relative to siMOCK ([1]; Myristoleyl, 15 μM)	percentage of GFP-silencing relative to siMOCK ([1]; Oleyl, 5 μM)	percentage of GFP-silencing relative to siMOCK ([1]; Oleyl, 10 μM)	percentage of GFP-silencing relative to siMOCK ([1]; Oleyl, 15 μM)	percentage of GFP-silencing relative to siMOCK ([1]; Palmitoleyl, 15 μM)	percentage of GFP-silencing relative to siMOCK ([1]; Petroselinyl, 10 μM)	percentage of GFP-silencing relative to siMOCK ([1]; Petroselinyl, 15 μM)	percentage of gene editing, GFP fluorescence intensity decrease (% of reduction) ([2]; Myristoleyl, 5 μM)	percentage of gene editing, GFP fluorescence intensity decrease (% of reduction) ([2]; Myristoleyl, 10 μM)	percentage of gene editing, GFP fluorescence intensity decrease (% of reduction) ([2]; Myristoleyl, 15 μM)	percentage of gene editing, GFP fluorescence intensity decrease (% of reduction) ([2]; Oleyl, 15 μM)	percentage of gene editing, GFP fluorescence intensity decrease (% of reduction) ([2]; Palmitoleyl, 15 μM)	percentage of gene editing, GFP fluorescence intensity decrease (% of reduction) ([3]; Myristoleyl, 15 μM)	percentage of gene editing, GFP fluorescence intensity decrease (% of reduction) ([3]; Palmitoleyl, 5 μM)	also measured
CC(=O)N[C@@H](CCCNC(=N)N)C(=O)N[C@@H](CCCCNC(=O)CCCC(=O)NN)C(=O)N[C@@H](Cc1c[nH]cn1)C(=O)N[C@@H](CCCNC(=N)N)C(=O)N[C@@H](CCCCNC(=O)CCCC(=O)NN)C(=O)N[C@@H](CCCCNC(=O)CCCC(=O)NN)C(=O)N[C@@H](Cc1c[nH]cn1)C(N)=O [7.3(L-H), Ac-RK*HRK*K*H-NH2] (Ac-RK([Glutaryl-NHNH2])HRK([Glutaryl-NHNH2])K([Glutaryl-NHNH2])H-NH2)	22%	31%	2%	14%	21%	40%	20%	52%	60%	29%	11%	9%	−6%	26%	28%	percentage of GFP-silencing relative to siMOCK ([1]; Myristoleyl, 5 μM): 18%; Cas9-RNP % fluorescence reduction ([2]; A549, 5 μM, Myr tail): 60%; Cas9-RNP % fluorescence reduction ([2]; A549, 5 μM, Pal tail): 67%; Cas9-RNP % fluorescence reduction ([2]; A549, 5 μM, Pet tail): 58%; efficiency on GFP silencing (Cas9-RNP delivery) ([2]; A549, myristoleyl, palmitoleyl or petroselinyl aldehydes): 60-70%; percentage of gene editing, GFP fluorescence intensity decrease (% of reduction) ([2]; Dodecanal, 15 μM): −9%; percentage of gene editing, GFP fluorescence intensity decrease (% of reduction) ([2]; Oleyl, 5 μM): 22%; percentage of gene editing, GFP fluorescence intensity decrease (% of reduction) ([2]; Oleyl, 10 μM): 31%; percentage of gene editing, GFP fluorescence intensity decrease (% of reduction) ([2]; Palmitoleyl, 5 μM): 67%; percentage of gene editing, GFP fluorescence intensity decrease (% of reduction) ([2]; Palmitoleyl, 10 μM): 35%; percentage of gene editing, GFP fluorescence intensity decrease (% of reduction) ([2]; Petroselinyl, 5 μM): 59%; percentage of gene editing, GFP fluorescence intensity decrease (% of reduction) ([2]; Petroselinyl, 10 μM): 29%; percentage of gene editing, GFP fluorescence intensity decrease (% of reduction) ([2]; Petroselinyl, 15 μM): 26%; percentage of gene editing, GFP fluorescence intensity decrease (% of reduction) ([3]; Dodecanal, 15 μM): 3%; percentage of gene editing, GFP fluorescence intensity decrease (% of reduction) ([3]; Oleyl, 5 μM): −5%; percentage of gene editing, GFP fluorescence intensity decrease (% of reduction) ([3]; Oleyl, 10 μM): 5%; percentage of gene editing, GFP fluorescence intensity decrease (% of reduction) ([3]; Palmitoleyl, 10 μM): 22%
Ac-RHLK*RHK*RRLK*RH-NH2 (Ac-RHLKRHKRRLKRH-NH2; not fully specified (residues 4, 7, 11); printed as Ac-RHLK*RHK*RRLK*RH-NH2; also: linker on K* not given here) [13(3His)]	28%	25%	22%	26%	29%	28%	42%	71%	5%	11%	43%	4%	18%	0%	−9%	siRNA % fluorescence reduction vs siMOCK ([1]; A549, amphiphile 5 μM, hydrophobic tail): 71%; percentage of GFP-silencing relative to siMOCK ([1]; Dodecanal, 10 μM): 10%; percentage of GFP-silencing relative to siMOCK ([1]; Dodecanal, 15 μM): 37%; percentage of GFP-silencing relative to siMOCK ([1]; Palmitoleyl, 10 μM): 36%; percentage of gene editing, GFP fluorescence intensity decrease (% of reduction) ([3]; Dodecanal, 5 μM): −33%; percentage of gene editing, GFP fluorescence intensity decrease (% of reduction) ([3]; Palmitoleyl, 15 μM): 14%; percentage of gene editing, GFP fluorescence intensity decrease (% of reduction) ([3]; Petroselinyl, 5 μM): 26%
